From patent US4931391A, “Method for preservation of nitrile hydration activity” (Mitsubishi Rayon Kabushiki Kaisha, priority 1986, dated 1990)
Where two headings read alike, the source gives them in different places.

How the values were obtained:
[1] = molecular target: T1, (Rhodococcus erythropolis, UniProt P13448+P13449); assay: Preservation of nitrile hydration activity of cell extract (crude enzyme solution), stabilizer added before crushing cells; format: biochemical, Corynebacterium strain N-774(FERM P-4446); conditions: left standing 2 days at 20° C.; buffer containing 10 g/l stabilizer mixed 1:1, pH 6.5
T1 sequence (P13448 2-207 limits assumed): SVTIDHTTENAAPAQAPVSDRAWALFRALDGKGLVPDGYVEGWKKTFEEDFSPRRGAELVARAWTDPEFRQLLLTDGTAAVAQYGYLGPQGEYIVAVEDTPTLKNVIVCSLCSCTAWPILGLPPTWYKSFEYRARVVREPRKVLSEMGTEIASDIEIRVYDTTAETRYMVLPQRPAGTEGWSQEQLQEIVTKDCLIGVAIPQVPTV
T1 sequence (P13449 1-212): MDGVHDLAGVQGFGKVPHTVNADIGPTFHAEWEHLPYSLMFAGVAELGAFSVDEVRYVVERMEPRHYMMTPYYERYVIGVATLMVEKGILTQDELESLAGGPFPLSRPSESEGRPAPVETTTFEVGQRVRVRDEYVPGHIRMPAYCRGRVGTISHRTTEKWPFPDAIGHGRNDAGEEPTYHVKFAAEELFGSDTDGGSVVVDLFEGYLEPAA
Description: (§1) A culture medium comprising 10 g/l of glucose, 5 g/l of peptone, 3 g/l of yeast extract, and 3 g/l of malt extract was adjusted to a pH of 7.2, and 100 ml of the resulting culture medium was sterilized in a 500-ml Erlenmeyer flask.
(§2) After cooling, the sterilized culture medium was inoculated with 1 ml of a culture fluid obtained by precultivating strain N-774(FERM P-4446) of the genus Corynebacterium in the same culture medium as is described above for 2 days, and cultivation was carried out aerobically at 30° C. for 2 days.
(§3) Cells were separated from the culture fluid by centrifugation (3° C., 10,000 rpm, 20 minutes) and washed with a physiological saline. The washed cells were subjected to centrifugation under the same conditions and then suspended in a physiological saline to obtain a suspension of washed cells.
(§4) The residual nitrile hydration activity percent (in Table 1, as in all succeeding tables, abbreviated to % residual activity) was calculated on the basis of the data thus obtained.

nitrilase [2] = molecular target: T2, nitrilase (Rhodococcus erythropolis, UniProt P13448+P13449); assay: as above; format: biochemical, Corynebacterium strain N-774(FERM P-4446)
T2 sequence (P13448 2-207 limits assumed): T1 sequence (P13448 2-207 limits assumed)
T2 sequence (P13449 1-212): T1 sequence (P13449 1-212)
Description: as §1, §2, §3, §4

nitrilase [3] = conditions: 1 ml + 1 ml buffer pH 6.5 containing 10 g/l stabilizer, 2 days at 20° C.
Description: (§5) In each of the following experimental examples, 0.1 ml of an enzyme solution was charged into a beaker containing 9.9 ml of phosphate buffer and irradiated with a 100-W EYE LAMP (supplied by Toshiba, Japan) positioned at a distance of 50 cm for 30 minutes in a bath maintained at 10° C. to induce the enzyme activity to the fullest extent. The resulting solution was then added to 10 ml of M/20 phosphate buffer (pH 7.7) containing 5.0% by weight of acrylonitrile to cause reaction at 10° C. for 10 minutes. The nitrile hydration activity of the test enzyme solution was determined by measuring the quantity of acrylamide produced by gas chromatography, the capability of producing 1μ mole of acrylamide per ml of the enzyme solution per minute being designated as 1 unit (U).
Each aliquot of a suspension of cells of a genus as shown in Table 2 prepared as in Comparison Example 1 was subjected to French press treatment and centrifugation similarly as in Comparison Example 1, whereby a cell extract was obtained.
(§6) The cell extract thus obtained was divided into two aliquots, 1 ml of one aliquot being mixed with 1 ml of M/10 phosphate buffer (pH 6.5) containing 10 g/l of ammonium isobutyrate, and 1 ml of the other aliquot being mixed with 1 ml of M/10 phosphate buffer (pH 6.5) as a comparison example. Both solutions were left standing for 2 days at 20° C., and the nitrile hydration activity levels were measured before and after each of the solutions were left standing to calculate % residual activity.

[4] = molecular target: T3, (Rhodococcus erythropolis, UniProt P13448+P13449); assay: Preservation of nitrile hydration activity of cell extract, Brevibacterium CBS-717; format: biochemical; conditions: 48 h; Brevibacterium CBS-717 extract; 1 ml + 1 ml buffer pH 6.5 containing 10 g/l stabilizer; 2 days at 20° C.; read-out: % Residual Activity
T3 construct: whereby a cell extract was obtained; endogenous in cells; host or cells: Brevibacterium CBS-717, French press cell extract
Description: as §5, with “(U). […]” for “(U).”
as §6

## CC(C)C(=O)O.N [ammonium isobutyrate]
[1]
  % Residual Activity: 92%
Nitrilase [2]; cell suspension mixed 1:1 with M/10 phosphate buffer pH 6.5 containing 10 g/l stabilizer, then French press
  Activity Before Being Left Standing: 1.3 × 10^3 U/ml
Nitrilase [2]; same extract after 2 days at 20° C.
  Activity After Being Left Standing: 1.2 × 10^3 U/ml
Nitrilase [3]; Bacillus CBS-494 extract
  % Residual Activity: 83%
Nitrilase [3]; Bacteridium CBS-496 extract
  % Residual Activity: 78%
Nitrilase [3]; Micrococcus CBS-497 extract
  % Residual Activity: 91%
Nitrilase [3]; Nocardia N-775 extract
  % Residual Activity: 93%
[4]
  activity at 5000 µg/mL: 89%
